This note sets out measurements from US10774065B2, “1-pyridazin-/triazin-3-yl-piper(-azine)/idine/pyrolidine derivatives and compositions thereof for inhibiting the activity of SHP2” (NOVARTIS AG, priority 2014, dated 2020).

The assay deals with SHP2 (Homo sapiens (Human), UniProt Q06124). The experiment in a line: SHP2 Allosteric Inhibition Assay (DiFMUP prompt fluorescence). In kind it is biochemical. To be noted: 0.5 nM SHP2 activated with 0.5 μM peptide IRS1_pY1172(dPEG8)pY1222; substrate DiFMUP; 25° C.
Chain of SHP2 (Q06124 whole entry): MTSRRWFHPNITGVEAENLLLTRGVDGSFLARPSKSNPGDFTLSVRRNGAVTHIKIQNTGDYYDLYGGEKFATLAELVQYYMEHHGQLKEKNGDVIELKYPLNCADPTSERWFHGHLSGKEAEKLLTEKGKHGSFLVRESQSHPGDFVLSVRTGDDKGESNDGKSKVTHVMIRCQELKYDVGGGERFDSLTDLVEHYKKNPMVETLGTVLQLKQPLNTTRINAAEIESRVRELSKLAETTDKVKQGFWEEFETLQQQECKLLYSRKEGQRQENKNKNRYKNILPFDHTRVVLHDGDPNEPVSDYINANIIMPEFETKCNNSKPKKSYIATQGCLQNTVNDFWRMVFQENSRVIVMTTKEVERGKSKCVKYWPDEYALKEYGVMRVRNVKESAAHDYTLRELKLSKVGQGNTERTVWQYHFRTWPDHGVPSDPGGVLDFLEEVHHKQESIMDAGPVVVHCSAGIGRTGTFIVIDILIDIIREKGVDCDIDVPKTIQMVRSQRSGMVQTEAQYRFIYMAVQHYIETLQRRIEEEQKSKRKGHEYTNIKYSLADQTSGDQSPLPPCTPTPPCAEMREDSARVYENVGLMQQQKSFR

pIC50: −log10 of the molar value.

A word on the pIC50: it is −log10 of the IC50, conventionally taken in molar units. A high value points to a small IC50. Consider `C[C@]1(CN)CCN(c2cnc(-c3cccc(Cl)c3Cl)c(N)n2)C[C@H]1O` (single isomer, unassigned) [11 P1], for which the pIC50 is 7.42.
With `C[C@]1(CN)CCN(c2cnc(-c3cccc(Cl)c3Cl)c(N)n2)C[C@H]1O` (single isomer, unassigned) [11 P2] the figure was 6.79.
